The results in this text go back to EP0367124A1, “Penicillanic acid derivatives” (F. HOFFMANN-LA ROCHE AG, priority 1988, dated 1990).

Common to all, as to experiment: In vitro MIC, Agar Well Diffusion Method
Holding throughout (type): cell-based
Background: In agar diffusion tests the substance spreads into inoculated agar from a disc or well.

The test system of assay [1] is Staphylococcus aureus 3037B. To be noted: Culture Staphylococcus aureus 3037B.
Assay [2] deals with Staphylococcus aureus 1059B. The settings on record: Culture Staphylococcus aureus 1059B.
Assay [3] relates to Staphylococcus aureus 3647B. The settings on record: Culture Staphylococcus aureus 3647B. From the text: (§1) The in vitro activity of compounds of the present invention as measured by the Minimum Inhibitory Concentration (MIC) in micrograms per milliliter (mcg/ml), utilizing the Agar Well Diffusion Method, against a variety of Gram-negative microorganisms is illustrated in the following Table, in which the compounds evaluated were as follows: • Compound A: [2S-[2α,3α,5α,6β(R*)]]-6-[[[[(4-Ethyl-2,3-dioxo-1-piperazinyl)carbonyl]amino]phenylacetyl]amino]-3-methyl-3-[[(1-methyl-1H-tetrazole-5-yl)thio]methyl]-7-oxo-4-thia-1-azabicyclo[3.2.0]-heptane-2-carboxylic acid monosodium salt sesquihydrate • Compound B: [2S-(2α,3α,5α,6β)]-3-Methyl-3-[[(1-methyl-1H-tetrazol-5-yl)-thio]methyl-7-oxo-6-[(phenylacetyl)amino]-4-thia-1-azabicyclo[3.2.0] heptane-2-carboxylic acid monosodium salt • Compound C: [2S-[2α,3α,5α,6β(Z)]]-6-[[(2-Amino-4-thiazolyl)-(methoxyimino)-acetyl]amino]-3-methyl -3-[[(1-methyl-1H-tetrazol-5-yl)thio]methyl]-7-oxo-4-thia-1-azabicyclo[3.2.0]heptane-2-carboxylic acid monosodium salt • Compound D: [2S-(2α,3α,5α,6β)]-3-(Azidomethyl)-3-methyl-7-oxo-6-[(phenylacetyl)amino]-4-thia-1-azabicyclo-[3.2.0]heptane-2-carboxylic acid monosodium salt • Compound E: [2S-(2α,3α,5α,6β)]-1-[[2-carboxy-3-methyl-7-oxo-6-[(phenylacetyl)amino]-4-thia-1-azabicyclo-[3.2.0]hept-3-yl]methylpyridinium hydroxide inner salt • Compound F: [2S-(2α,3α,5α,6β)]-3-[[(2,5-Dihydro-6-hydroxy-2-methyl-5-oxo-1,2,4-triazine-3-yl)thio] -methyl]-3-methyl-7-oxo-6-[(phenylacetyl)amino]-4-thia-1-azabicyclo[3.2.0]heptane-2-carboxylic acid disodium salt • Compound G: [2S-(2α,3α,5α,6β)]-3-[(Acetylthio)-methyl]-3-methyl-7-oxo-6-[(phenylacetyl)amino]-4-thia-1-azabicyclo[3.2.0]heptane-2-carboxylic acid monosodium salt • Compound H: [2S-(2α,3α,5α,6β)]-3-[[[3,4-bis(Acetyloxy)benzoyl]oxy]methyl]-3-methyl-7-oxo-6-[(phenylacetyl)amino]-4-thia-1-azabicyclo[3.2.0]heptane-2-carboxylic acid monosodium salt

The next assay concerns Escherichia coli 3082B. The settings on record: Culture Escherichia coli 3082B.
From the text: as §1

In assay [4] the test system is Bacillus megaterium 164 ATCC 8011. To be noted: for MIC: Priestia megaterium, ATCC8011, Culture Bacillus megaterium 164 ATCC 8011.
From the text: as §1

The subject of assay [5] is Proteus vulgaris 101N ATCC 6380. The settings on record: for MIC: ATCC6380, Culture Proteus vulgaris 101N ATCC 6380.
From the text: as §1

Another assay has as its system Proteus vulgaris 100. To be noted: Culture Proteus vulgaris 100.
From the text: as §1

Assay [6] concerns Pseudomonas aeruginosa 56 ATCC 8079. To be noted: for MIC: ATCC8079, Culture Pseudomonas aeruginosa 56 ATCC 8079.
From the text: as §1

Assay [7] has as its system Staphylococcus aureus 82 ATCC 6538P. The settings on record: Culture Staphylococcus aureus 82 ATCC 6538P; for MIC: ATCC6538P.
From the text: as §1

The test system of assay [8] is Pseudomonas maltophilia 28978 ATCC 17445. The settings on record: Stenotrophomonas maltophilia, ATCC17445, Culture Pseudomonas maltophilia 28978 ATCC 17445.
From the text: as §1

For assay [9], the system named is Bacillus subtilus 558 NRRL 558. The settings on record: for MIC: NRRL558, Culture Bacillus subtilus 558 NRRL 558.
From the text: as §1

The test system of another assay is Escherichia coli 2722B. To be noted: Culture Escherichia coli 2722B.
From the text: as §1

Assay [10] has as its system Pseudomonas aeruginosa 56M. The settings on record: Culture Pseudomonas aeruginosa 56M.
From the text: as §1

The next assay relates to Escherichia coli 2721B. The settings on record: Culture Escherichia coli 2721B.
From the text: as §1

For a further assay, the system named is Escherichia coli 1269B. To be noted: Culture Escherichia coli 1269B.
From the text: as §1

Another assay deals with Escherichia coli 3081B. The settings on record: Culture Escherichia coli 3081B.
From the text: as §1

The test system of assay [11] is Micrococcus luteus PCI ATCC 9341. To be noted: for MIC: ATCC9341, Culture Micrococcus luteus PCI ATCC 9341.
From the text: as §1

For assay [12], the system named is Streptococcus faecium ATCC 8043. To be noted: for MIC: Enterococcus faecium, ATCC8043, Culture Streptococcus faecium ATCC 8043.
From the text: as §1

SMILES strings stand for the structures. Structures can show the parent of a compound that is named as a salt.

The MIC is the lowest concentration found to suppress growth. Read a low MIC as a more susceptible organism. Regarding `CCN1CCN(C(=O)NC(C(=O)NC2C(=O)N3C2SC(C)(CSc2nnnn2C)C3C(=O)O)c2ccccc2)C(=O)C1=O` (stereo not drawn) [Compound A, [2S-[2α,3α,5α,6β(R*)]]-6-[[[[(4-Ethyl-2,3-dioxo-1-piperazinyl)carbonyl]amino]phenylacetyl]amino]-3-methyl-3-[[(1-methyl-1H-tetrazole-5-yl)thio]methyl]-7-oxo-4-thia-1-azabicyclo[3.2.0]-heptane-2-carboxylic acid monosodium salt sesquihydrate], the MIC in [1] amounted to 500 µg/mL; in [2] it was 7.8 µg/mL; in assay [3], 500 µg/mL; in the assay on Escherichia coli 3082B, 0.24 µg/mL; in [4], 0.12 µg/mL; in [5], 0.98 µg/mL. The MIC in the assay on Proteus vulgaris 100 was found to be 7.8 µg/mL; in assay [6], 15.6 µg/mL; in assay [7], 0.98 µg/mL; in [8] it was 250 µg/mL; in assay [9] it was 0.98 µg/mL; with Escherichia coli 2722B, 0.12 µg/mL. Also, the MIC in assay [10] was found to be 0.49 µg/mL; against Escherichia coli 2721B it was 3.9 µg/mL; with Escherichia coli 1269B it was 62.5 µg/mL; against Escherichia coli 3081B, 15.6 µg/mL; in [11], 0.49 µg/mL; in [12], 31.3 µg/mL.

With `Cn1nnnc1SCC1(C)SC2C(NC(=O)Cc3ccccc3)C(=O)N2C1C(=O)O` (stereo not drawn) [Compound B, [2S-(2α,3α,5α,6β)]-3-Methyl-3-[[(1-methyl-1H-tetrazol-5-yl)-thio]methyl-7-oxo-6-[(phenylacetyl)amino]-4-thia-1-azabicyclo[3.2.0]heptane-2-carboxylic acid monosodium salt], the MIC in assay [1] amounted to 125 µg/mL; in assay [2], 3.9 µg/mL; in assay [3], 125 µg/mL; with Escherichia coli 3082B, 31.3 µg/mL; in assay [4], 0.015 µg/mL; in assay [5] it was 15.6 µg/mL. Further, the MIC is more than 125 µg/mL with Proteus vulgaris 100; 62.5 µg/mL in assay [6]; 0.03 µg/mL in assay [7]; more than 125 µg/mL in [8]; 0.03 µg/mL in assay [9]; 31.3 µg/mL against Escherichia coli 2722B. The MIC is 0.98 µg/mL in assay [10]; 62.5 µg/mL in the assay with Escherichia coli 2721B; more than 125 µg/mL with Escherichia coli 1269B; more than 125 µg/mL in the assay on Escherichia coli 3081B; 0.03 µg/mL in assay [11]; 7.8 µg/mL in [12].

With `CC1(C[n+]2ccccc2)SC2C(NC(=O)Cc3ccccc3)C(=O)N2C1C(=O)[O-]` (stereo not drawn) [Compound E, [2S-(2α,3α,5α,6β)]-1-[[2-carboxy-3-methyl-7-oxo-6-[(phenylacetyl)amino]-4-thia-1-azabicyclo-[3.2.0]hept-3-yl]methylpyridinium hydroxideinner salt], the MIC was determined as 62.5 µg/mL in assay [1]; 15.6 µg/mL in assay [2]; 500 µg/mL in [3]; 31.3 µg/mL in the assay on Escherichia coli 3082B; 0.49 µg/mL in [4]; 125 µg/mL in [5]. The MIC was more than 500 µg/mL in the assay with Proteus vulgaris 100; 125 µg/mL in assay [6]; 0.49 µg/mL in assay [7]; 0.24 µg/mL in assay [9]; 31.3 µg/mL in the assay with Escherichia coli 2722B; 3.9 µg/mL in [10]. Also, the MIC turned out to be 31.3 µg/mL with Escherichia coli 2721B; 500 µg/mL in the assay with Escherichia coli 1269B; 125 µg/mL in the assay with Escherichia coli 3081B; 1.95 µg/mL in assay [11]; 125 µg/mL in [12].

For `Cn1nc([O-])c(=O)nc1SC[C@@]1(C)S[C@@H]2[C@H](NC(=O)Cc3ccccc3)C(=O)N2[C@H]1C(=O)[O-].[Na+].[Na+]` [Compound F, [2S-(2α,3α,5α,6β)]-3-[[(2,5-Dihydro-6-hydroxy-2-methyl-5-oxo-1,2,4-triazine-3-yl)thio] -methyl]-3-methyl-7-oxo-6-[(phenylacetyl)amino]-4-thia-1-azabicyclo[3.2.0]heptane-2-carboxylic acid disodium salt], the “In Vitro MIC” value in assay [1] was 500 µg/mL; in [2], 0.24 µg/mL; in [3], 500 µg/mL; in the assay with Escherichia coli 3082B it was 0.98 µg/mL; in assay [4] (Culture Bacillus megaterium 164 ATCC 8011), 0.12 µg/mL; in assay [5] (Culture Proteus vulgaris 101N ATCC 6380), 7.8 µg/mL. Besides, the “In Vitro MIC” value in the assay on Proteus vulgaris 100 stood at 250 µg/mL; in [6] (Culture Pseudomonas aeruginosa 56 ATCC 8079), 31.5 µg/mL; in assay [7], 0.24 µg/mL; in assay [9] (Culture Bacillus subtilus 558 NRRL 558) it was 0.12 µg/mL; in the assay on Escherichia coli 2722B it was 3.9 µg/mL; in assay [10], 0.49 µg/mL. In addition, the “In Vitro MIC” value in the assay on Escherichia coli 2721B amounted to 31.3 µg/mL; in the assay on Escherichia coli 1269B it was 500 µg/mL; in the assay with Escherichia coli 3081B it was 125 µg/mL; in assay [11] (Culture Micrococcus luteus PCI ATCC 9341) it was 0.24 µg/mL; in assay [12] (Culture Streptococcus faecium ATCC 8043) it was 62.5 µg/mL.

Regarding `CC(=O)SCC1(C)SC2C(NC(=O)Cc3ccccc3)C(=O)N2C1C(=O)O` (stereo not drawn) [Compound G, [2S-(2α,3α,5α,6β)]-3-[(Acetylthio)methyl]-3-methyl-7-oxo-6-[(phenylacetyl)amino]-4-thia-1-azabicyclo[3.2.0]heptane-2-carboxylic acid monosodium salt], the MIC in assay [1] is 250 µg/mL; in assay [2], 0.98 µg/mL; in assay [3] it was 250 µg/mL; with Escherichia coli 3082B, 1.95 µg/mL; in assay [5] it was 31.3 µg/mL; in the assay with Proteus vulgaris 100, more than 500 µg/mL. The MIC in assay [6] is 125 µg/mL; in assay [7] it was 0.03 µg/mL; in assay [8], more than 500 µg/mL; in [9], 0.03 µg/mL; in the assay on Escherichia coli 2722B, 7.8 µg/mL; in assay [10], 0.98 µg/mL. Also, the MIC with Escherichia coli 2721B was found to be 62.5 µg/mL; with Escherichia coli 3081B, 500 µg/mL; in assay [11], 0.06 µg/mL; in [12], 0.98 µg/mL.

In the case of `CC(=O)Oc1ccc(C(=O)OCC2(C)SC3C(NC(=O)Cc4ccccc4)C(=O)N3C2C(=O)O)cc1OC(C)=O` (stereo not drawn) [Compound H, [2S-(2α,3α,5α,6β)]-3-[[[3,4-bis(Acetyloxy)benzoyl]oxy]methyl]-3-methyl-7-oxo-6-[(phenylacetyl)amino]-4-thia-1-azabicyclo[3.2.0]heptane-2-carboxylic acid monosodium salt], the minimal inhibitory concentration (MIC) was 125 µg/mL in assay [1]; 7.8 µg/mL in assay [2]; 500 µg/mL in [3]; 15.6 µg/mL in the assay with Escherichia coli 3082B; 62.5 µg/mL in assay [5]; more than 500 µg/mL with Proteus vulgaris 100. For the same molecule, the minimal inhibitory concentration (MIC) worked out at 31.5 µg/mL in [6]; 0.12 µg/mL in [7]; 31.5 µg/mL in assay [8]; 0.12 µg/mL in assay [9]; 62.5 µg/mL against Escherichia coli 2722B; 1.95 µg/mL in assay [10]. In addition, the minimal inhibitory concentration (MIC) against Escherichia coli 2721B is 500 µg/mL; against Escherichia coli 3081B it was more than 500 µg/mL; in assay [11], 0.12 µg/mL; in assay [12], 7.8 µg/mL.
